Converted amounts (≈) assume the structure as drawn.
Tests used:
Rattus norvegicus [1] = assay: (§1) AUC (0 to t) in Sprague-Dawley rat at 2 mg/kg, iv; assay type: ADME, organism-based; conditions: in vivo
[2] = Tmax in Sprague-Dawley rat at 2 mg/kg, iv; assay type: ADME, organism-based; conditions: in vivo
[3] = Tmax in Sprague-Dawley rat at 10 mg/kg, po; assay type: ADME, organism-based; conditions: in vivo
[4] = Cmax in Sprague-Dawley rat at 2 mg/kg, iv; assay type: ADME, organism-based; parameters: dose 2 mg/kg, route intravenous; conditions: in vivo
[5] = Cmax in Sprague-Dawley rat at 10 mg/kg, po; assay type: ADME, organism-based; parameters: dose 10 mg/kg, route oral; conditions: in vivo
Staphylococcus aureus [6] = assay: Antibacterial activity against methicillin-resistant Staphylococcus aureus 14-5; assay type: functional
Staphylococcus aureus [7] = assay: Antibacterial activity against methicillin-sensitive Staphylococcus aureus 14-1; assay type: functional
Staphylococcus aureus [8] = assay: Antibacterial activity against methicillin-sensitive Staphylococcus aureus 14-2; assay type: functional
Staphylococcus aureus [9] = assay: Antibacterial activity against methicillin-sensitive Staphylococcus aureus 14-3; assay type: functional
Staphylococcus aureus [10] = assay: Antibacterial activity against methicillin-sensitive Staphylococcus aureus 14-4; assay type: functional
[11] = system: Staphylococcus epidermidis; assay: Antibacterial activity against methicillin-resistant Staphylococcus epidermidis 14-4; assay type: functional
[12] = system: Staphylococcus epidermidis; assay: Antibacterial activity against methicillin-sensitive Staphylococcus epidermidis 14-1; assay type: functional
[13] = system: Staphylococcus epidermidis; assay: Antibacterial activity against methicillin-sensitive Staphylococcus epidermidis 14-2; assay type: functional
[14] = system: Staphylococcus epidermidis; assay: Antibacterial activity against methicillin-sensitive Staphylococcus epidermidis 14-3; assay type: functional
Enterococcus faecalis [15] = assay: Antibacterial activity against Enterococcus faecalis 14-1; assay type: functional
Enterococcus faecalis [16] = assay: Antibacterial activity against Enterococcus faecalis 14-2; assay type: functional
Enterococcus faecalis [17] = assay: Antibacterial activity against Enterococcus faecalis 14-3; assay type: functional
Enterococcus faecalis [18] = assay: Antibacterial activity against Enterococcus faecalis 14-5; assay type: functional
Escherichia coli [19] = assay: Antibacterial activity against Escherichia coli 14-1; assay type: functional
Escherichia coli [20] = assay: Antibacterial activity against Escherichia coli 14-2; assay type: functional
Escherichia coli [21] = assay: Antibacterial activity against Escherichia coli 14-1 expressing extended-spectrum beta-lactamase; assay type: functional
Escherichia coli [22] = assay: Antibacterial activity against Escherichia coli 14-2 expressing extended-spectrum beta-lactamase; assay type: functional
[23] = AUC (0 to t) in Sprague-Dawley rat at 10 mg/kg, po; assay type: ADME, organism-based; conditions: in vivo
Rattus norvegicus [24] = assay: (§2) AUC (0 to infinity) in Sprague-Dawley rat at 2 mg/kg, iv; assay type: ADME, organism-based; parameters: dose 2 mg/kg, route intravenous, time infinity; conditions: in vivo
[25] = AUC (0 to infinity) in Sprague-Dawley rat at 10 mg/kg, po; assay type: ADME, organism-based; parameters: dose 10 mg/kg, time infinity, route oral; conditions: Sprague-Dawley, in vivo
[26] = Half life in Sprague-Dawley rat at 2 mg/kg, iv; assay type: ADME, organism-based; conditions: in vivo
[27] = Half life in Sprague-Dawley rat at 10 mg/kg, po; assay type: ADME, organism-based; conditions: Sprague-Dawley, in vivo
[28] = MRT (0 to t) in Sprague-Dawley rat at 2 mg/kg, iv; assay type: ADME, organism-based; conditions: in vivo
[29] = MRT (0 to t) in Sprague-Dawley rat at 10 mg/kg, po; assay type: ADME, organism-based; conditions: in vivo
[30] = Clearance in Sprague-Dawley rat at 2 mg/kg, iv; assay type: ADME, organism-based; conditions: in vivo
[31] = Clearance in Sprague-Dawley rat at 10 mg/kg, po; assay type: ADME, organism-based; conditions: Sprague-Dawley, in vivo
[32] = Volume of distribution at steady state in Sprague-Dawley rat at 2 mg/kg, iv; assay type: ADME, organism-based; conditions: in vivo, read-out: Vdss
Rattus norvegicus [33] = assay: Volume of distribution at steady state in Sprague-Dawley rat at 10 mg/kg, po; assay type: ADME, organism-based; conditions: in vivo
[34] = Oral bioavailability in Sprague-Dawley rat at 10 mg/kg; assay type: ADME, organism-based; conditions: in vivo
[35] = as §1; assay type: ADME, organism-based; conditions: Sprague-Dawley, in vivo
Staphylococcus aureus [36] = assay: Antibacterial activity against methicillin-resistant Staphylococcus aureus 14-1; assay type: functional
Staphylococcus aureus [37] = assay: Antibacterial activity against methicillin-resistant Staphylococcus aureus 14-2; assay type: functional
Staphylococcus aureus [38] = assay: Antibacterial activity against methicillin-resistant Staphylococcus aureus 14-4; assay type: functional
[39] = system: Staphylococcus epidermidis; assay: Antibacterial activity against methicillin-resistant Staphylococcus epidermidis 14-1; assay type: functional
[40] = system: Staphylococcus epidermidis; assay: Antibacterial activity against methicillin-resistant Staphylococcus epidermidis 14-2; assay type: functional
[41] = system: Staphylococcus epidermidis; assay: Antibacterial activity against methicillin-resistant Staphylococcus epidermidis 14-3; assay type: functional
[42] = as §2; assay type: ADME, organism-based; parameters: dose 2 mg/kg, route intravenous, time infinity; conditions: Sprague-Dawley, in vivo

Row | SMILES | Tmax [2] [min] | Tmax [3] [h] | Cmax [4] [µg/mL] | Cmax [5] [µg/mL] | MIC (Staphylococcus aureus [6]) [mg/L] | MIC (Staphylococcus aureus [7]) [mg/L] | MIC (Staphylococcus aureus [8]) [mg/L] | MIC (Staphylococcus aureus [9]) [mg/L] | MIC (Staphylococcus aureus [10]) [mg/L] | MIC [11] [mg/L] | MIC [12] [mg/L] | MIC [13] [mg/L] | MIC [14] [mg/L] | MIC (Enterococcus faecalis [15]) [mg/L] | MIC (Enterococcus faecalis [16]) [mg/L] | MIC (Enterococcus faecalis [17]) [mg/L] | MIC (Enterococcus faecalis [18]) [mg/L] | MIC (Escherichia coli [19]) [mg/L] | MIC (Escherichia coli [20]) [mg/L] | MIC (Escherichia coli [21]) [mg/L] | other results
1 | CCCC[C@H](CN(O)C=O)C(=O)N1CC2(CC2)C[C@H]1C(=O)Nc1ncc(C)s1 | 4.8 | 0.58 | 1.09 | 0.63 | < 0.008 | < 0.008 | < 0.008 | < 0.008 | < 0.008 | < 0.008 | < 0.008 | < 0.008 | < 0.008 | 0.125 (≈ 0.306 µM) | 0.5 (≈ 1.22 µM) | 0.5 (≈ 1.22 µM) | 0.25 (≈ 0.612 µM) | 32 (≈ 78.3 µM) | 32 (≈ 78.3 µM) | 0.125 (≈ 0.306 µM) | AUCt (Rattus norvegicus [1]): 0.653 µg·h/mL; MIC (Escherichia coli [22]): 32 mg/L (≈ 78.3 µM); AUC(0-t) [23]: 2.08 µg·h/mL; AUC (Rattus norvegicus [24]): 0.653 µg·h/mL; AUC(0-inf) [25]: 2.13 µg·h/mL; half-life [26]: 1.14 h; half-life [27]: 5 h; MRT last [28]: 1.74 h; MRT last [29]: 4.42 h; clearance [30]: 1.41 L/h/kg; CL/F [31]: 4.94 L/h/kg; Vd [32]: 3.6 L/kg; Vdss (Rattus norvegicus [33]): 36.5 L/kg; bioavailability [34]: 30%
2 | CCCC[C@H](CN(O)C=O)C(=O)N1CC2(CC2)C[C@H]1c1nc(-c2cccnc2)no1 | 4.8 | 0.25 | 0.929 | 0.893 | 0.5 (≈ 1.21 µM) | 0.5 (≈ 1.21 µM) | 0.5 (≈ 1.21 µM) | 0.5 (≈ 1.21 µM) | 0.5 (≈ 1.21 µM) | 0.5 (≈ 1.21 µM) | 0.125 (≈ 0.302 µM) | 0.5 (≈ 1.21 µM) | 0.125 (≈ 0.302 µM) | 2 (≈ 4.84 µM) | 2 (≈ 4.84 µM) | 2 (≈ 4.84 µM) | 2 (≈ 4.84 µM) | 64 (≈ 155 µM) | 64 (≈ 155 µM) | 1 (≈ 2.42 µM) | AUC(0-t) [35]: 0.654 µg·h/mL; MIC (Staphylococcus aureus [36]): 0.5 mg/L (≈ 1.21 µM); MIC (Staphylococcus aureus [37]): 0.5 mg/L (≈ 1.21 µM); MIC (Staphylococcus aureus [38]): 0.5 mg/L (≈ 1.21 µM); MIC [39]: 0.25 mg/L (≈ 0.605 µM); MIC [40]: 0.25 mg/L (≈ 0.605 µM); MIC [41]: 0.125 mg/L (≈ 0.302 µM); MIC (Escherichia coli [22]): 32 mg/L (≈ 77.4 µM); AUC(0-t) [23]: 1.28 µg·h/mL; AUC(0-inf) [42]: 0.657 µg·h/mL; AUC(0-inf) [25]: 1.3 µg·h/mL; half-life [26]: 1.11 h; half-life [27]: 1.28 h; MRT last [28]: 0.61 h; MRT last [29]: 1.68 h; clearance [30]: 3.07 L/h/kg; CL/F [31]: 8.16 L/h/kg; Vd [32]: 1.9 L/kg; Vdss (Rattus norvegicus [33]): 15.1 L/kg; bioavailability [34]: 40%

Source: ChEMBL document CHEMBL3822420, “New peptide deformylase inhibitors design, synthesis and pharmacokinetic assessment” (Bioorg Med Chem Lett, 2016)
